# Results published in ChEMBL document CHEMBL4257535, “Design, synthesis and biological evaluation of AKT inhibitors bearing a piperidin-4-yl appendant” (Medchemcomm, 2018).
# pIC50: −log10 of the molar value. Active and inactive are the calls of the source. The calls are words filed in the database; no cut-off is given here.
# Assays:
# [1] = tested on: PC-3; test: Induction of apoptosis in human PC3 cells assessed as live cells at 1 uM after 48 hrs by Annexin V-FITC/propidium iodide staining based flow cytometry (reference value: 97.19%); assay type: functional
# [2] = in vitro; design: dose or concentration left out as unconfirmed; conditions: human, liver microsomes
# Description: Stability in human liver microsomes assessed as parent compound remaining at 10 mM preincubated for 10 mins followed by NADPH addition and measured after 60 mins by LC-MS analysis
# [3] = in vitro; design: dose or concentration left out as unconfirmed; conditions: human, liver microsomes; remark: listed apart in the source
# Description: Intrinsic clearance in human liver microsomes at 10 mM preincubated for 10 mins followed by NADPH addition and measured after 5 to 60 mins by LC-MS analysis
# [4] = tested on: PC-3; test: Antiproliferative activity against human PC3 cells after 72 hrs by MTT assay; assay type: functional, cell-based; conditions: PC-3, 72 h
# [5] = biological target: RAF proto-oncogene serine/threonine-protein kinase (Homo sapiens) (UniProt P04049); test: Inhibition of RAF1 (unknown origin) at 1 uM after 40 mins by scintillation counting method relative to control
# [6] = biological target: Cyclin-dependent kinase 1 (Homo sapiens) (UniProt P06493); test: Inhibition of CDK1 (unknown origin) at 1 uM after 40 mins by scintillation counting method relative to control
# [7] = tested on: PC-3; test: Induction of apoptosis in human PC3 cells assessed as early apoptotic cells at 5 uM after 48 hrs by Annexin V-FITC/propidium iodide staining based flow cytometry (reference value: 1.05%); assay type: functional
# [8] = biological target: T1, RAC-alpha serine/threonine-protein kinase (Homo sapiens, UniProt P31749); test: Inhibition of AKT1 (unknown origin) at 1 uM using biotin-labelled STK as substrate measured after 45 mins by HTRF method relative to control
# [9] = biological target: RAC-gamma serine/threonine-protein kinase (Homo sapiens) (UniProt Q9Y243); test: Inhibition of AKT3 (unknown origin) at 10 nM after 40 mins by scintillation counting method relative to control
# [10] = biological target: T1, RAC-alpha serine/threonine-protein kinase; test: Inhibition of AKT1 (unknown origin) using biotin-labelled STK as substrate measured after 45 mins by HTRF method
# [11] = organism: Homo sapiens; test: Selectivity ratio of compound effect for inhibition of AKT1 (unknown origin) to compound effect for inhibition of AKT2 (unknown origin)
# [12] = tested on: PC-3; test: Induction of apoptosis in human PC3 cells assessed as early apoptotic cells at 10 uM after 48 hrs by Annexin V-FITC/propidium iodide staining based flow cytometry (reference value: 1.05%); assay type: functional
# [13] = tested on: PC-3; test: Induction of apoptosis in human PC3 cells assessed as necrotic cells at 1 uM after 48 hrs by Annexin V-FITC/propidium iodide staining based flow cytometry (reference value: 1.48%); assay type: functional
# [14] = biological target: Tyrosine-protein kinase JAK1 (Homo sapiens) (UniProt P23458); test: Inhibition of JAK1 (unknown origin) at 1 uM after 40 mins by scintillation counting method relative to control
# [15] = biological target: T2, Serine/threonine-protein kinase Chk1 (Homo sapiens) (UniProt O14757); test: Inhibition of CHK1 (unknown origin) at 1 uM after 40 mins by scintillation counting method relative to control
# T2 sequence (whole entry): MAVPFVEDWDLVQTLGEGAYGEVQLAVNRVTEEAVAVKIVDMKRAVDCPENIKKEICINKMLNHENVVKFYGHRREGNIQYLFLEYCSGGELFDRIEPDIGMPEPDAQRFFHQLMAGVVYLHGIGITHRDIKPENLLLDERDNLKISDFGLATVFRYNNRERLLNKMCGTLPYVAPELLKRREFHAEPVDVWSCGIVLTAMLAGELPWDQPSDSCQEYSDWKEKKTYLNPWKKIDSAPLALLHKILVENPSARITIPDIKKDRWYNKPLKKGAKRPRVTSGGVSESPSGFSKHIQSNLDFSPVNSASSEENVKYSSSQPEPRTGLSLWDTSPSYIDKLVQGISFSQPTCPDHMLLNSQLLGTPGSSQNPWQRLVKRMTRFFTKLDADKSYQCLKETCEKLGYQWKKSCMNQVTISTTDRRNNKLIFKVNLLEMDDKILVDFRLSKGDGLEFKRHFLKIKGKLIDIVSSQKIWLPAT
# [16] = tested on: PC-3; test: Induction of apoptosis in human PC3 cells assessed as late apoptotic cells at 5 uM after 48 hrs by Annexin V-FITC/propidium iodide staining based flow cytometry (reference value: 0.27%); assay type: functional
# [17] = organism: Homo sapiens; test: Selectivity ratio of compound effect for inhibition of AKT3 (unknown origin) to compound effect for inhibition of AKT2 (unknown origin)
# [18] = biological target: Glycogen synthase kinase-3 beta (Homo sapiens) (UniProt P49841); test: Inhibition of GSK3beta (unknown origin) at 1 uM after 40 mins by scintillation counting method relative to control
# [19] = biological target: Protein kinase C alpha type (Homo sapiens) (UniProt P17252); test: Inhibition of PKCalpha (unknown origin) at 1 uM after 40 mins by scintillation counting method relative to control
# [20] = biological target: T1, RAC-alpha serine/threonine-protein kinase; test: Inhibition of AKT1 (unknown origin) at 10 nM after 40 mins by scintillation counting method relative to control
# [21] = biological target: T1, RAC-alpha serine/threonine-protein kinase; test: Inhibition of AKT1 (unknown origin) at 0.1 uM using biotin-labelled STK as substrate measured after 45 mins by HTRF method relative to control
# [22] = tested on: PC-3; test: Induction of apoptosis in human PC3 cells assessed as necrotic cells at 10 uM after 48 hrs by Annexin V-FITC/propidium iodide staining based flow cytometry (reference value: 1.48%); assay type: functional
# [23] = biological target: RAC-beta serine/threonine-protein kinase (Homo sapiens) (UniProt P31751); test: Inhibition of AKT2 (unknown origin) at 10 nM after 40 mins by scintillation counting method relative to control
# [24] = tested on: PC-3; test: Induction of apoptosis in human PC3 cells assessed as live cells at 10 uM after 48 hrs by Annexin V-FITC/propidium iodide staining based flow cytometry (reference value: 97.19%); assay type: functional
# [25] = tested on: PC-3; test: Induction of apoptosis in human PC3 cells assessed as live cells at 5 uM after 48 hrs by Annexin V-FITC/propidium iodide staining based flow cytometry (reference value: 97.19%); assay type: functional
# [26] = biological target: T3, Aurora kinase A (Homo sapiens) (UniProt O14965); test: Inhibition of Aurora A (unknown origin) at 1 uM after 40 mins by scintillation counting method relative to control
# T3 sequence (whole entry): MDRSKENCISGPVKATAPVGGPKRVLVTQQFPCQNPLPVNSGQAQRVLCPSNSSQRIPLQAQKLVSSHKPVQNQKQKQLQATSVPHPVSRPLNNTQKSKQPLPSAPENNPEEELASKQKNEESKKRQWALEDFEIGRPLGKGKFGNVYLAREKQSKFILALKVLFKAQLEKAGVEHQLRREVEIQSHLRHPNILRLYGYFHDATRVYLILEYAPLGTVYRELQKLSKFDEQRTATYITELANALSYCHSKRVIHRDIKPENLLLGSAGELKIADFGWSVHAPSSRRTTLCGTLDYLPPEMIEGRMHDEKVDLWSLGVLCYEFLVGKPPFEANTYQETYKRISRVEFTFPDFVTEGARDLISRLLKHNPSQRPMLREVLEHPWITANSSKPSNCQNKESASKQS
# [27] = tested on: PC-3; test: Induction of apoptosis in human PC3 cells assessed as necrotic cells at 5 uM after 48 hrs by Annexin V-FITC/propidium iodide staining based flow cytometry (reference value: 1.48%); assay type: functional
# T1 sequence (P31749 whole entry): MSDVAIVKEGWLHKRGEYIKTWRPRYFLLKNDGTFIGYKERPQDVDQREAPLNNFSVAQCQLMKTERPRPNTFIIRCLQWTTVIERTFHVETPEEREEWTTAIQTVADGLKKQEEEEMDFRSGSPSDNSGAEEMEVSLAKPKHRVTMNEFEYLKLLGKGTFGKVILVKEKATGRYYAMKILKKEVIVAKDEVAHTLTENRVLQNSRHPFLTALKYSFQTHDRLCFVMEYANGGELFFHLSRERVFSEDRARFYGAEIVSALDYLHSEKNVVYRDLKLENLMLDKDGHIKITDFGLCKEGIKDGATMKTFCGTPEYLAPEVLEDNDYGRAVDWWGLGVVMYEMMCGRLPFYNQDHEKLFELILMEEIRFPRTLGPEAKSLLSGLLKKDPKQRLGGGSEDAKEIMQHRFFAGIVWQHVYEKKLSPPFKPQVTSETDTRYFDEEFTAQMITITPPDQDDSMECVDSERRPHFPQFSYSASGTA
# Sequence of RAC-beta serine/threonine-protein kinase (Homo sapiens) (P31751 whole entry): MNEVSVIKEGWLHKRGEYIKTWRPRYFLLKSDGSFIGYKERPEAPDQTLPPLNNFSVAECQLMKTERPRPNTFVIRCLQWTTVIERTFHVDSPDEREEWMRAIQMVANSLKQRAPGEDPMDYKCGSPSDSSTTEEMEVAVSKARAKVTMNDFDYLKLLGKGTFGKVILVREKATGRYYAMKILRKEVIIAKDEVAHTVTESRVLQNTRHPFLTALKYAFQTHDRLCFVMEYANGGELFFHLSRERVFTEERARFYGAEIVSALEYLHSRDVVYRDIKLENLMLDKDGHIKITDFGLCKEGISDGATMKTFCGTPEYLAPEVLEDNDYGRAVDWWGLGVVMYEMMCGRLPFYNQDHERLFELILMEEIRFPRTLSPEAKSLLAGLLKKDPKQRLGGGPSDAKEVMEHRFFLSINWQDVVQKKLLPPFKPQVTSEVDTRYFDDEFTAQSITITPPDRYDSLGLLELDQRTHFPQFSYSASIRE
# Sequence of Glycogen synthase kinase-3 beta (Homo sapiens) (P49841 whole entry, looked up): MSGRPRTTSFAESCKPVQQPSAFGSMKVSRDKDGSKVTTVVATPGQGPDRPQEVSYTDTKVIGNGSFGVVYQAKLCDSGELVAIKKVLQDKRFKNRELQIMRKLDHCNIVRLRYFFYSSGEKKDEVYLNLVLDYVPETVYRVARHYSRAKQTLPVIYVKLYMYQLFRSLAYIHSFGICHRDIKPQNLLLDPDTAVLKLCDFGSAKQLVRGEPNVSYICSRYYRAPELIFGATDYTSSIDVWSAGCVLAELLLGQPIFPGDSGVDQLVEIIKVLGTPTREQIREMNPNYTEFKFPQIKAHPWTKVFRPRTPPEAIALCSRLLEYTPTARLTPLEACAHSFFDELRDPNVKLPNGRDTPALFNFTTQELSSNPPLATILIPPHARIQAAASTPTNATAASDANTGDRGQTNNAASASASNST
# Sequence of RAC-gamma serine/threonine-protein kinase (Homo sapiens) (Q9Y243 whole entry): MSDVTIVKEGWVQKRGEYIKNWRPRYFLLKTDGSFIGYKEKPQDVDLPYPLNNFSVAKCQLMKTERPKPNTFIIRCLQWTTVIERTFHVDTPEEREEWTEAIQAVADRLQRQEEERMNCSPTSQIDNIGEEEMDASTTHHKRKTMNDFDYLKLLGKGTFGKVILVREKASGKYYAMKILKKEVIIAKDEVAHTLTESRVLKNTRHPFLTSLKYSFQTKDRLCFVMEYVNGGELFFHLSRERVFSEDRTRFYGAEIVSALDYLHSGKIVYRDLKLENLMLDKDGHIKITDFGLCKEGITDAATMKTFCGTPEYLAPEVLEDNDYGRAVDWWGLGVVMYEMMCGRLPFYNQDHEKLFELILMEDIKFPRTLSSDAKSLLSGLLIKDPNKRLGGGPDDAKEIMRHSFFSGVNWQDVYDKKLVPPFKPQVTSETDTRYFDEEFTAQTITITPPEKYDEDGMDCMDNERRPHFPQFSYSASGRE
# Sequence of Tyrosine-protein kinase JAK1 (Homo sapiens) (P23458 whole entry): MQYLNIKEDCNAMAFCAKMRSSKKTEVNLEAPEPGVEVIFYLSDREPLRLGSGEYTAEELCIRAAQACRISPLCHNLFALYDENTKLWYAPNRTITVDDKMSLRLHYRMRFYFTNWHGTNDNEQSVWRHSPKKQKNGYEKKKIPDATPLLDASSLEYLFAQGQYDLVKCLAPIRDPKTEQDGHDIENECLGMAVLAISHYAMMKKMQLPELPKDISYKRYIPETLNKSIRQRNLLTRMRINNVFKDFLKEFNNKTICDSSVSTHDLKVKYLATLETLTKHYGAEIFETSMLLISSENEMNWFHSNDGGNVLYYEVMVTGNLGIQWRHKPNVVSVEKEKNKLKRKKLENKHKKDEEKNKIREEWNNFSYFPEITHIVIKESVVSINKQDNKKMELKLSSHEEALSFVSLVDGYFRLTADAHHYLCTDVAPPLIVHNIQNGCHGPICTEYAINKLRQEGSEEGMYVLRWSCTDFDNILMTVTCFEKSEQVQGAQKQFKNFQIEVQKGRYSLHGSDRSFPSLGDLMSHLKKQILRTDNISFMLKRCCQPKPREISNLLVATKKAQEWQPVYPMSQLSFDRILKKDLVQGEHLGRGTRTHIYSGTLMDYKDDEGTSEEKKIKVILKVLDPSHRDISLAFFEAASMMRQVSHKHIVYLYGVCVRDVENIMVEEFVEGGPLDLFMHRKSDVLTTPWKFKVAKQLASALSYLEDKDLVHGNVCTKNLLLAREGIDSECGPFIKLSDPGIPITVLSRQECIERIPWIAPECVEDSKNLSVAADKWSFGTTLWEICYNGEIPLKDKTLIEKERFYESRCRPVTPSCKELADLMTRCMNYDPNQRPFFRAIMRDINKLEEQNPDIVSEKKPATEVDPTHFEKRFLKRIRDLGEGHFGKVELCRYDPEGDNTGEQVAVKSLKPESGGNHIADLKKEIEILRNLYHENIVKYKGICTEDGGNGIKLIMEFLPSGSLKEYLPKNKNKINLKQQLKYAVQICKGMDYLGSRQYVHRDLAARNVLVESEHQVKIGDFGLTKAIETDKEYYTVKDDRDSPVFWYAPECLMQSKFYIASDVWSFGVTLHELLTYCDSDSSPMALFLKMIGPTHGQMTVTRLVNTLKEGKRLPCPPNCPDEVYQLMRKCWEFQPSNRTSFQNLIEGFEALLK
# Sequence of RAF proto-oncogene serine/threonine-protein kinase (Homo sapiens) (P04049 whole entry): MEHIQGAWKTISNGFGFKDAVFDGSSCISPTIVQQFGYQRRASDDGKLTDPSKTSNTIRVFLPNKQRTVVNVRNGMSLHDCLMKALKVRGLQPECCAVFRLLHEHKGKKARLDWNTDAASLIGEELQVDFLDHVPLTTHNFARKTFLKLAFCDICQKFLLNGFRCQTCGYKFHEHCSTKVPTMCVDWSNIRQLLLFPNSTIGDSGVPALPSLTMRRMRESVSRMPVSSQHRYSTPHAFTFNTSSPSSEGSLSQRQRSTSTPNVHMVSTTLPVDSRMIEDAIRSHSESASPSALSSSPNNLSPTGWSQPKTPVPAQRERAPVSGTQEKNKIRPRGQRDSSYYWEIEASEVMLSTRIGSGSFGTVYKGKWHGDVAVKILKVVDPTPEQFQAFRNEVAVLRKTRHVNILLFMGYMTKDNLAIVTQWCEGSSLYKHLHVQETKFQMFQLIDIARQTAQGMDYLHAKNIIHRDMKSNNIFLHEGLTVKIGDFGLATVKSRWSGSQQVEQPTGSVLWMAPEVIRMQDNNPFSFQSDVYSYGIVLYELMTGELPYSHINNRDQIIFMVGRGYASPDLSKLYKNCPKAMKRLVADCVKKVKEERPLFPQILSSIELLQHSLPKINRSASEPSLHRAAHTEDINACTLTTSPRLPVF
# Sequence of Cyclin-dependent kinase 1 (Homo sapiens) (P06493 whole entry, looked up): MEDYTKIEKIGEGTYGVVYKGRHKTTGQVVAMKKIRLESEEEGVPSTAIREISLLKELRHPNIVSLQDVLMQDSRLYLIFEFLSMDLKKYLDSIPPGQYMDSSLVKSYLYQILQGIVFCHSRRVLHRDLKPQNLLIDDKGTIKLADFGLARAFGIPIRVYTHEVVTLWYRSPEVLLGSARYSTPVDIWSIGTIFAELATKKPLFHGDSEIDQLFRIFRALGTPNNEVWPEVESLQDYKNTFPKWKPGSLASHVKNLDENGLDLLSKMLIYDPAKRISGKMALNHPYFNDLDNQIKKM
compound,measurement,setting,value
O=C(N1CCN(c2ncnc3[nH]nc(Cl)c23)CC1)C1(c2ccc(Cl)c(Cl)c2)CCNCC1,Activity,[1],90.48%
same,remaining at 1 h,[2],81.8%
same,CLint scaled,[3],< 8.6 mL/min/kg
same,microsomal CLint,[3],< 9.6 µL/min/mg
same,pIC50,[4],5.43
same,inhibition,[5],inactive
same,inhibition,[6],inactive
same,Activity,[7],3.93%
same,inhibition,[8],94.3%
same,inhibition,[9],93%
same,pIC50,[10],7.61
same,Selectivity ratio,[11],> 2
same,Activity,[12],11.23%
same,Activity,[13],2%
same,inhibition,[14],inactive
same,inhibition,[15],inactive
same,Activity,[16],6.2%
same,Selectivity ratio,[17],> 2
same,inhibition,[18],inactive
same,inhibition,[19],inactive
same,inhibition,[20],82%
same,inhibition,[21],83.7%
same,Activity,[22],3.24%
same,inhibition,[23],38%
same,Activity,[24],68.92%
same,Activity,[25],88.11%
same,inhibition,[26],64%
same,Activity,[27],1.76%
